Values belong to the molecule of their own block, whether it stands above or below them.
Assays:
AUT-PK 500 [1] = test: Protein kinase assay: autophosphorylation of AUT-PK 500 (32P incorporation from [gamma-32P] ATP); format: biochemical, rat; settings: for ^32 P Incorporated (autophosphorylation of AUT-PK 500): 1 microgram enzyme; for effect on the AUT-PK 500 activity: monovalent cations, concentrations of up to 100 mM; for concentration giving peak activity of the enzyme / maximal activation, relative to that obtained by Mn^2+ or Mg^2+ / EC50: divalent cations; for effect on the autophosphorylation of AUT-PK 500: filter assay or radioautography of SDS gel; for influence of sulfhydryl group inhibitors on AUT-PK 500 activity: see Table IV; for EC50: read-out: concentration resulting in half-maximal stimulation of AUT-PK 500
Procedure: ATP into an appropriate substrate. […] ATP (400-600 cpm/pmol) and an appropriate amount of the enzyme. The reaction was incubated at 37° C. for one minute or as specified under experimental conditions, and was terminated by the addition of 2 ml of ice-cold 10% trichloroacetic acid followed by the addition of 500 micrograms of bovine serum albumin. The precipitate was immediately filtered on a GF/C filter and washed three times with 2 ml of ice-cold 10% trichloroacetic acid. The filter was dried and counted in a cocktail of Omnifluor in toluene. […]
Autophosphorylation of AUT-PK 500 was also analyzed by one-dimensional SDS-polyacrylamide gel electrophoresis. […] ATP. […] The phosphorylated sample was applied to 6% acrylamide containing 0.1% SDS and 0.3% Bis. Electrophoresis was conducted in the presence of Tris-glycine buffer, pH 8.3.

AUT-PK 500 [2] = test: Phosphorylation of exogenous substrates by AUT-PK 500; format: biochemical, rat
Procedure: Protein kinase activity was measured by the incorporation of ^32 P from [gamma-^32 P] ATP into an appropriate substrate. The 250-microliter reaction mixture contained 20 mM Tris-HCl, pH 7.5, 10 mM Mg^2+, 2.5×10^-6 M [gamma-^32 P] ATP (400-600 cpm/pmol) and an appropriate amount of the enzyme. The reaction was incubated at 37° C. for one minute or as specified under experimental conditions, and was terminated by the addition of 2 ml of ice-cold 10% trichloroacetic acid followed by the addition of 500 micrograms of bovine serum albumin. The precipitate was immediately filtered on a GF/C filter and washed three times with 2 ml of ice-cold 10% trichloroacetic acid. The filter was dried and counted in a cocktail of Omnifluor in toluene.
Most of the known cyclic nucleotide-dependent or -independent protein kinases catalyze the phosphorylation of one or more of the commonly used exogenous substrates such as histone, casein, protamine, and phosvitin. […] In order to confirm this conclusion, AUT-PK 500 was incubated with [gamma-^32 P] ATP and histone in the presence or absence of cyclic AMP, then subjected to SDS-polyacrylamide gel electrophoresis and analyzed by radioautography.

[3] = Table II, addition 10 micrograms, enzyme alone 16,000 cpm
[4] = Table IV, -SH group inhibitor 5 mM, enzyme alone 18,500 cpm
[5] = concentrations of up to 200 micrograms/ml

Molecule: Nc1nc2c(ncn2[C@@H]2O[C@@H]3COP(=O)(O)O[C@H]3[C@H]2O)c(=O)[nH]1 [Cyclic GMP]
dependence of AUT-PK 500 activity on cyclic nucleotides / blockage by heat-stable inhibitor (AUT-PK 500 [1]): independent
^32 P Incorporated (autophosphorylation of AUT-PK 500) (AUT-PK 500 [1]; Table II, cyclic nucleotide 1 microM, enzyme alone 16,000 cpm): 16,300 cpm

Molecule: Casein
effect of exogenous substrate proteins on the phosphorylation of AUT-PK 500 (AUT-PK 500 [1]; Table II): None of these proteins affected the phosphorylation
^32 P Incorporated (autophosphorylation of AUT-PK 500) (AUT-PK 500 [1]; [3]): 10,000 cpm
phosphorylation of the substrate by AUT-PK 500 (AUT-PK 500 [2]): did not phosphorylate

Molecule: NC(=O)CI [Iodoacetamide]
^32 P Incorporated (autophosphorylation of AUT-PK 500) (AUT-PK 500 [1]; [4]): 18,600 cpm

Molecule: [Ca+2] [Ca^2+]
^32 P Incorporated (autophosphorylation of AUT-PK 500) (AUT-PK 500 [1]; Table III, 0.4 mM, enzyme alone 18,500 cpm): 17,000 cpm
effect on AUT-PK 500 activity (AUT-PK 500 [1]; calcium or calcium-calmodulin, Table III): not affected
concentration giving peak activity of the enzyme (AUT-PK 500 [1]): 20 mM
maximal activation, relative to that obtained by Mn^2+ or Mg^2+ (AUT-PK 500 [1]): 60%

Molecule: polylysine
effect on the autophosphorylation of AUT-PK 500 (AUT-PK 500 [1]; [5]): No effect

Molecule: Protamine
effect of exogenous substrate proteins on the phosphorylation of AUT-PK 500 (AUT-PK 500 [1]; Table II): None of these proteins affected the phosphorylation
^32 P Incorporated (autophosphorylation of AUT-PK 500) (AUT-PK 500 [1]; [3]): 12,000 cpm

Molecule: CCN1C(=O)C=CC1=O [N--Ethylmaleimide, N-ethylmaleimide]
^32 P Incorporated (autophosphorylation of AUT-PK 500) (AUT-PK 500 [1]; [4]): 18,000 cpm
influence of sulfhydryl group inhibitors on AUT-PK 500 activity (AUT-PK 500 [1]): did not influence

Molecule: O=C(O)CN(CCOCCOCCN(CC(=O)O)CC(=O)O)CC(=O)O [EGTA, 1,2-di(2-aminoethoxy)ethane-N,N,N',N'-tetraacetic acid]
inhibition of AUT-PK 500 activity (AUT-PK 500 [1]; EGTA (Table III, 0.8 mM), explained by partial chelation of Mg^2+): 23.2%
^32 P Incorporated (autophosphorylation of AUT-PK 500) (AUT-PK 500 [1]; Table III, 0.8 mM, enzyme alone 18,500 cpm): 14,200 cpm

Molecule: O=S(=O)(O)c1cc[c]([Hg][Cl])cc1 [p-chloromercuriphenylsulfonic acid]
^32 P Incorporated (autophosphorylation of AUT-PK 500) (AUT-PK 500 [1]; [4]): 18,300 cpm
influence of sulfhydryl group inhibitors on AUT-PK 500 activity (AUT-PK 500 [1]): did not influence

Molecule: Nc1nc2c(ncn2[C@@H]2O[C@H](COP(=O)(O)OP(=O)(O)OP(=O)(O)O)[C@@H](O)[C@H]2O)c(=O)[nH]1 [GTP]
effect on the ATP-dependent rate of self-phosphorylation (AUT-PK 500 [1]): did not affect
incorporation of radioactivity with [gamma-^32 P] GTP as phosphate donor (AUT-PK 500 [1]; GTP in place of ATP): no incorporation of radioactivity was observed

Molecule: [Mg+2] [Mg^2+]
concentration giving peak activity of the enzyme (AUT-PK 500 [1]): 10 mM
EC50 (AUT-PK 500 [1]): 2500 µM

Molecule: lithium
effect on the AUT-PK 500 activity (AUT-PK 500 [1]): no significant effect

Molecule: [Co+2] [Co^2+]
concentration giving peak activity of the enzyme (AUT-PK 500 [1]): 5 mM
maximal activation, relative to that obtained by Mn^2+ or Mg^2+ (AUT-PK 500 [1]): 40%
EC50 (AUT-PK 500 [1]): 2500 µM

Molecule: Calmodulin
^32 P Incorporated (autophosphorylation of AUT-PK 500) (AUT-PK 500 [1]; Table III, 100 microgram/ml, enzyme alone 18,500 cpm): 17,400 cpm

Molecule: [Mn+2] [Mn^2+]
concentration giving peak activity of the enzyme (AUT-PK 500 [1]): 5 mM
EC50 (AUT-PK 500 [1]): 2500 µM

Further lines, results first:

effect on the AUT-PK 500 activity (AUT-PK 500 [1]): no significant effect
Molecule: [K+] [potassium]

effect on the autophosphorylation of AUT-PK 500 (AUT-PK 500 [1]; polyamines each at 1 mM): No effect
Molecule: NCCCNCCCCNCCCN [spermine]

effect on the AUT-PK 500 activity (AUT-PK 500 [1]): no significant effect
Molecule: [Na+] [sodium]

effect on the autophosphorylation of AUT-PK 500 (AUT-PK 500 [1]; polyamines each at 1 mM): No effect
Molecule: NCCCCNCCCN [spermidine]

effect on the autophosphorylation of AUT-PK 500 (AUT-PK 500 [1]; polyamines each at 1 mM): No effect
Molecule: NCCCCN [putrescine]

concentration giving peak activity of the enzyme (AUT-PK 500 [1]): 50 mM
maximal activation, relative to that obtained by Mn^2+ or Mg^2+ (AUT-PK 500 [1]): of the same order
EC50 (AUT-PK 500 [1]): 2500 µM
Molecule: [Sr+2] [Sr^2+]

effect on the autophosphorylation of AUT-PK 500 (AUT-PK 500 [1]; [5]): No effect
Molecule: polyarginine
